Test results taken from patent US11261174B2, “Pyrazole O-linked carbamoyl cyclohexyl acids as LPA antagonists” (BRISTOL-MYERS SQUIBB COMPANY, priority 2017, dated 2022).

Tests used:
LPA1 [1] = target: T1, LPA1 (Homo sapiens, UniProt Q92633); conditions: IPF patients, 26-week clinical trial; cited from earlier work
LPA1 [2] = target: T1, LPA1; assay: LPA1 functional antagonist assay (LPA-induced calcium flux); type: cell-based; set-up: expressed in transfected cells; host or cells: Chinese hamster ovary (CHO) cells; conditions: CHO cells overexpressing human LPA1; calcium flux induced by 10 nM LPA; read-out: hLPA1 IC50
Protocol: The effectiveness of compounds of the present invention as LPA1 inhibitors can be determined in an LPA1 functional antagonist assay as follows:
Chinese hamster ovary cells overexpressing human LPA1 were plated overnight (15,000 cells/well) in poly-D-lysine coated 384-well microplates (Greiner bio-one, Cat #781946) in DMEM/F12 medium (Gibco, Cat #11039). Following overnight culture, cells were loaded with calcium indicator dye (AAT Bioquest Inc, Cat #34601) for 30 minutes at 37° C. The cells were then equilibrated to room temperature for 30 minutes before the assay. Test compounds solubilized in DMSO were transferred to 384 well non-binding surface plates (Corning, Cat #3575) using the Labcyte Echo acoustic dispense and diluted with assay buffer [1×HBSS with calcium/magnesium (Gibco Cat #14025-092), 20 mM HEPES (Gibco Cat #15630-080) and 0.1% fatty acid free BSA (Sigma Cat # A9205)] to a final concentration of 0.5% DMSO. Diluted compounds were added to the cells by FDSS6000 (Hamamatsu) at final concentrations ranging from 0.08 nM to 5 μM. and were then incubated for 20 min at room temperature at which time LPA (Avanti Polar Lipids Cat #857130C) was added at final concentrations of 10 nM to stimulate the cells. […] IC50 values were determined by fitting data to a 4-parameter logistic equation (GraphPad Prism, San Diego Calif.).

[3] = tested on: pancreatic cancer cell lines; conditions: cited from earlier work
UUO mice = conditions: cited from earlier work
[4] = tested on: human foetal lung fibroblasts; conditions: induced by BAL obtained from IPF patients; cited from earlier work
[5] = tested on: mouse epithelial renal cell line, MCT; conditions: LPA treatment of MCT cells, co-treatment; cited from earlier work

T1 sequence (Q92633 whole entry): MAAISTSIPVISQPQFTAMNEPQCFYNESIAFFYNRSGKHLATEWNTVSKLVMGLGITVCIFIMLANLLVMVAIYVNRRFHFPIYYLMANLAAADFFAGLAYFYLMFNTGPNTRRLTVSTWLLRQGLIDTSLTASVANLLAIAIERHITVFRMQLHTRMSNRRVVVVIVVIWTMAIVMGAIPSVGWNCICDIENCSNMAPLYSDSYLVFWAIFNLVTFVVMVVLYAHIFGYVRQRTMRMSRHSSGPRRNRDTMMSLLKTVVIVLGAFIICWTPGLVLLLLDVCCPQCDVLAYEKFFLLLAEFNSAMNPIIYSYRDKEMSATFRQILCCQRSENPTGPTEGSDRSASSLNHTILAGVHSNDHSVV

SMILES	IC50 (LPA1 [2])	also measured
Cc1noc(-c2ccc(-c3ccc(C4(C(=O)O)CC4)cc3)cc2)c1NC(=O)O[C@H](C)c1ccccc1 [BMS-986020]	–	rate of FVC (forced vital capacity) decline (LPA1 [1]): significantly reduce
Cc1nc(-c2cnn(C)c2COC(=O)N(C)CC(C)C)ncc1O[C@H]1CCC[C@H](C(=O)O)C1 [Example 68]	214 nM	–
Cc1nc(-c2cnn(C)c2COC(=O)N(C)CC2CC2)ncc1O[C@H]1CCC[C@H](C(=O)O)C1 [Example 69]	293 nM	–
Cc1nc(-c2cnn(C)c2COC(=O)N(C)C2CCC2)ncc1O[C@H]1CCC[C@H](C(=O)O)C1 [Example 70]	120 nM	–
Cc1nc(-c2cnn(C)c2COC(=O)N(C)C2CCCC2)ncc1O[C@H]1CCC[C@H](C(=O)O)C1 [Example 71]	115 nM	–
Cc1nc(-c2cnn(C)c2COC(=O)N(C)Cc2ccccc2)ncc1O[C@H]1CCC[C@H](C(=O)O)C1 [Example 72]	60 nM	–
Cc1nc(-c2cnn(C)c2COC(=O)N(C)CCCCCF)ncc1O[C@H]1CCC[C@H](C(=O)O)C1 [Example 73]	142 nM	–
Cc1nc(-c2cnn(C)c2COC(=O)N(C)CCCCF)ncc1O[C@H]1CCC[C@H](C(=O)O)C1 [Example 74]	77 nM	–
CCCCCN(C)C(=O)OCc1c(-c2ncc(O[C@H]3CCC[C@H](C(=O)O)C3)c(C)n2)cnn1C [Example 75]	82 nM	–
Cc1nc(-c2cnn(C)c2COC(=O)N(C)CC23CC(F)(C2)C3)ncc1O[C@H]1CCC[C@H](C(=O)O)C1 [Example 76]	346 nM	–
Cc1nc(-c2cnn(C)c2COC(=O)N(C)CC23CC(C2)C3)ncc1O[C@H]1CCC[C@H](C(=O)O)C1 [Example 77]	125 nM	–
Cc1nc(-c2cnn(C)c2COC(=O)N(C)CCC2CC2(F)F)ncc1O[C@H]1CCC[C@H](C(=O)O)C1 (stereo partly shown) [Example 78]	317 nM	–
Cc1nc(-c2cnn(C)c2COC(=O)N(C)C2CCCCC2)ncc1O[C@H]1CCC[C@H](C(=O)O)C1 [Example 79]	93 nM	–
Cc1nc(-c2cnn(C)c2COC(=O)N(C)CC2CCC2)ncc1O[C@H]1CCC[C@H](C(=O)O)C1 [Example 80]	71 nM	–
Cc1nc(-c2cnn(C)c2COC(=O)NC2CCCCC2)ncc1O[C@H]1CCC[C@H](C(=O)O)C1 [Example 81]	856 nM	–
CCc1nc(-c2cnn(C)c2COC(=O)N(C)Cc2ccccc2)ncc1O[C@H]1CCC[C@H](C(=O)O)C1 [Example 82]	79 nM	–
CCc1nc(-c2cnn(C)c2COC(=O)N(C)C2CCCC2)ncc1O[C@H]1CCC[C@H](C(=O)O)C1 [Example 83]	60 nM	–
Cc1noc(-c2ccc(CSCCC(=O)O)cc2)c1NC(=O)OC(C)c1ccccc1Cl (stereo not shown) [Ki16425]	–	invasion activity ([3]; LPA-induced and ascites-induced, highly peritoneal metastatic pancreatic cancer cell line): blocked; in vitro migration ([3]; in response to LPA and peritoneal fluid (ascites) from pancreatic cancer patients): effectively blocked; development of renal fibrosis (UUO mice): closely resembled the profile of LPA1 (−/−) mice; chemotaxis of human foetal lung fibroblasts [4]: blocked; induction of CTGF expression [5]: almost completely suppressed

Now from value to molecule, other results behind:

IC50 (LPA1 [2])	SMILES	also measured
13 nM	CCc1nc(-c2cnn(C)c2COC(=O)N(C)CC2CCC2)ncc1O[C@H]1CCC[C@H](C(=O)O)C1 [Example 84]	–
162 nM	CCc1nc(-c2cnn(C)c2COC(=O)N(C)CC2CC2)ncc1O[C@H]1CCC[C@H](C(=O)O)C1 [Example 85]	–
217 nM	CCc1nc(-c2cnn(C)c2COC(=O)N(C)C2CCC2)ncc1O[C@H]1CCC[C@H](C(=O)O)C1 [Example 86]	–
33 nM	CCCCN(C)C(=O)OCc1c(-c2ncc(O[C@H]3CCC[C@H](C(=O)O)C3)c(CC)n2)cnn1C [Example 87]	–
1260 nM	CCCN(C)C(=O)OCc1c(-c2ncc(O[C@H]3CCC[C@H](C(=O)O)C3)c(CC)n2)cnn1C [Example 88]	–
23 nM	CC(C1CC1)N(C)C(=O)OCc1c(-c2ccc(O[C@H]3CCC[C@H](C(=O)O)C3)cc2)cnn1C (stereo partly shown) [Example 89]	–
309 nM	Cc1nc(-c2cnn(C)c2COC(=O)N2CC(C)(C)C2)ccc1O[C@H]1CCC[C@H](C(=O)O)C1 [Example 90]	–
32 nM	Cc1nc(-c2cnn(C)c2COC(=O)N(C)C[C@@H]2C[C@H]2C)ncc1O[C@H]1CCC[C@H](C(=O)O)C1 [Example 91]	–
45 nM	Cc1nc(-c2cnn(C)c2COC(=O)N(C)C[C@H]2C[C@@H]2C)ncc1O[C@H]1CCC[C@H](C(=O)O)C1 [Example 92]	–
